Organism: Rattus norvegicus
Assay: Open TG-GATES - Regimen: Single
Format: toxicity, organism-based, Sprague-Dawley
Design: regimen Single, gender Male, age 6 weeks
Conditions: in vivo, po, 0 mg/kg, route gavage, dose level Control; for APTT / Bas / Eos / Fbg / Hb / Ht / Lym / MCH / MCHC / MCV / Mono / Neu / PT / Plat / RBC / Ret / WBC: tissue Blood; for KIDNEY_L / KIDNEY_R / KIDNEY_TOTAL: tissue Kidney; for LIVER: tissue Liver; for A/G / ALP / ALT / AST / BUN / CRE / Ca / Cl / DBIL / GLC / IP / K / LDH / Na / PL / RALB / TBIL / TC / TG / TP / gamma-GTP: tissue Plasma

`CCc1cc(C(N)=S)ccn1` [ETHIONAMIDE] was tested, and the TERMINAL_BW (3 h) was 229.3 g, the APTT (3 h) was 16.6 s and the Bas (3 h) was 0%. The Eos (3 h) was 1%, the Fbg (3 h) was 213.4 mg/dL and the Hb (3 h) was 14 g/dL. It also gave a Ht (3 h) of 41.5%, a Lym (3 h) of 80.2% and an MCH (3 h) of 22.1 pg. The MCHC (3 h) was 33.8%, the MCV (3 h) was 65.5 fL and the Mono (3 h) was 7.2%. It also gave a Neu (3 h) of 11.6%, a PT (3 h) of 11.7 s and a Plat (3 h) of 118.5 x10_4/uL. For the same compound, the RBC (3 h) was 635.2 x10_4/ul, the Ret (3 h) was 7.7% and the WBC (3 h) was 98.2 x10_2/uL. For the same compound, the KIDNEY_L (3 h) was 1 g, the KIDNEY_R (3 h) was 1.1 g and the KIDNEY_TOTAL (3 h) was 2.1 g. The LIVER (3 h) was 11.4 g, the A/G (3 h) was 1.8 and the ALP (3 h) was 831 IU/L. The ALT (3 h) was 31.8 IU/L, the AST (3 h) was 64.6 IU/L and the BUN (3 h) was 13.6 mg/dL. The CRE (3 h) was 0.6 mg/dL, the Ca (3 h) was 10.9 mg/dL and the Cl (3 h) was 104.8 meq/L. The DBIL (3 h) was 0.006 mg/dL, the GLC (3 h) was 192.4 mg/dL and the IP (3 h) was 8.2 mg/dL. The K (3 h) was 4.6 meq/L, the LDH (3 h) was 72.6 IU/L and the Na (3 h) was 141 meq/L. The PL (3 h) was 152.2 mg/dL, the RALB (3 h) was 3.5 g/dL and the TBIL (3 h) was 0.3 mg/dL. For the same compound, the TC (3 h) was 82 mg/dL, the TG (3 h) was 86.2 mg/dL and the TP (3 h) was 5.4 g/dL. It also gave a gamma-GTP (3 h) of 1 IU/L, a TERMINAL_BW (6 h) of 223.7 g and an APTT (6 h) of 18.2 s. The Bas (6 h) was 0%, the Eos (6 h) was 1% and the Fbg (6 h) was 221.6 mg/dL. The Hb (6 h) was 14.1 g/dL, the Ht (6 h) was 41.9% and the Lym (6 h) was 80.6%. It also gave an MCH (6 h) of 21.8 pg, an MCHC (6 h) of 33.5% and an MCV (6 h) of 65.2 fL. For the same compound, the Mono (6 h) was 7.6%, the Neu (6 h) was 11.2% and the PT (6 h) was 12.1 s. It also gave a Plat (6 h) of 124.1 x10_4/uL, an RBC (6 h) of 644 x10_4/ul and a Ret (6 h) of 7.8%. It also gave a WBC (6 h) of 114.3 x10_2/uL, a KIDNEY_L (6 h) of 1 g and a KIDNEY_R (6 h) of 1 g. The KIDNEY_TOTAL (6 h) was 2 g, the LIVER (6 h) was 10.5 g and the A/G (6 h) was 1.6. It also gave an ALP (6 h) of 729.4 IU/L, an ALT (6 h) of 29.6 IU/L and an AST (6 h) of 63.6 IU/L. For the same compound, the BUN (6 h) was 12 mg/dL, the CRE (6 h) was 0.5 mg/dL and the Ca (6 h) was 11 mg/dL. For the same compound, the Cl (6 h) was 104 meq/L, the DBIL (6 h) was 0 mg/dL and the GLC (6 h) was 187.6 mg/dL. The IP (6 h) was 9.4 mg/dL, the K (6 h) was 5 meq/L and the LDH (6 h) was 87.8 IU/L. It also gave a Na (6 h) of 139 meq/L, a PL (6 h) of 150 mg/dL and an RALB (6 h) of 3.3 g/dL. It also gave a TBIL (6 h) of 0.4 mg/dL, a TC (6 h) of 82.4 mg/dL and a TG (6 h) of 86.6 mg/dL. It also gave a TP (6 h) of 5.4 g/dL, a gamma-GTP (6 h) of 1.2 IU/L and a TERMINAL_BW (9 h) of 223.4 g. The APTT (9 h) was 17.3 s, the Bas (9 h) was 0% and the Eos (9 h) was 1%. The Fbg (9 h) was 213.8 mg/dL, the Hb (9 h) was 13.9 g/dL and the Ht (9 h) was 41%. It also gave a Lym (9 h) of 71%, an MCH (9 h) of 21.8 pg and an MCHC (9 h) of 33.9%. The MCV (9 h) was 64.3 fL, the Mono (9 h) was 7% and the Neu (9 h) was 21.4%. It also gave a PT (9 h) of 12.1 s, a Plat (9 h) of 115.1 x10_4/uL and an RBC (9 h) of 639.6 x10_4/ul. It also gave a Ret (9 h) of 7.9%, a WBC (9 h) of 97.9 x10_2/uL and a KIDNEY_L (9 h) of 1.1 g. It also gave a KIDNEY_R (9 h) of 1 g, a KIDNEY_TOTAL (9 h) of 2.1 g and an LIVER (9 h) of 9.8 g. It also gave an A/G (9 h) of 1.9, an ALP (9 h) of 759.2 IU/L and an ALT (9 h) of 31.2 IU/L. The AST (9 h) was 59.2 IU/L, the BUN (9 h) was 13.2 mg/dL and the CRE (9 h) was 0.5 mg/dL. The Ca (9 h) was 10.4 mg/dL, the Cl (9 h) was 107 meq/L and the DBIL (9 h) was 0.024 mg/dL. For the same compound, the GLC (9 h) was 194.8 mg/dL, the IP (9 h) was 10.2 mg/dL and the K (9 h) was 4.7 meq/L. It also gave an LDH (9 h) of 66.6 IU/L, a Na (9 h) of 143.4 meq/L and a PL (9 h) of 126.8 mg/dL. It also gave an RALB (9 h) of 3.6 g/dL, a TBIL (9 h) of 0.4 mg/dL and a TC (9 h) of 65.8 mg/dL. For the same compound, the TG (9 h) was 47.8 mg/dL, the TP (9 h) was 5.4 g/dL and the gamma-GTP (9 h) was 1.2 IU/L. For the same compound, the TERMINAL_BW (24 h) was 237.2 g, the APTT (24 h) was 16.3 s and the Bas (24 h) was 0%. For the same compound, the Eos (24 h) was 1.2%, the Fbg (24 h) was 214.4 mg/dL and the Hb (24 h) was 13.9 g/dL. The Ht (24 h) was 41.1%, the Lym (24 h) was 75.6% and the MCH (24 h) was 21.8 pg. For the same compound, the MCHC (24 h) was 33.7%, the MCV (24 h) was 64.7 fL and the Mono (24 h) was 7.6%. For the same compound, the Neu (24 h) was 15.6%, the PT (24 h) was 11.7 s and the Plat (24 h) was 117.8 x10_4/uL. For the same compound, the RBC (24 h) was 635.6 x10_4/ul, the Ret (24 h) was 7.8% and the WBC (24 h) was 117.6 x10_2/uL. The KIDNEY_L (24 h) was 1 g, the KIDNEY_R (24 h) was 1 g and the KIDNEY_TOTAL (24 h) was 2.1 g. For the same compound, the LIVER (24 h) was 11.8 g, the A/G (24 h) was 1.9 and the ALP (24 h) was 856.4 IU/L. The ALT (24 h) was 40.8 IU/L, the AST (24 h) was 70.6 IU/L and the BUN (24 h) was 20 mg/dL. It also gave a CRE (24 h) of 0.6 mg/dL, a Ca (24 h) of 11 mg/dL and a Cl (24 h) of 104.4 meq/L. For the same compound, the DBIL (24 h) was 0.016 mg/dL, the GLC (24 h) was 200.2 mg/dL and the IP (24 h) was 8.1 mg/dL. The K (24 h) was 4.7 meq/L, the LDH (24 h) was 77.8 IU/L and the Na (24 h) was 141.2 meq/L. For the same compound, the PL (24 h) was 151.8 mg/dL, the RALB (24 h) was 3.6 g/dL and the TBIL (24 h) was 0.3 mg/dL. It also gave a TC (24 h) of 79.8 mg/dL, a TG (24 h) of 90.6 mg/dL and a TP (24 h) of 5.5 g/dL. For the same compound, the gamma-GTP (24 h) was 1.6 IU/L.
